Patent publication US9695178B2, “6-(2-pyridyl)-7,8-dihydro-5H-pyrido[4,3-D]pyrimidine analogs as hedgehog pathway signaling inhibitors and therapeutic applications thereof” (Suzhou Yunxuan Yiyao Keji Youxian Gongsi, priority 2013, dated 2017)
Where two headings read alike, the source gives them in different places.

Molecular target: Smo (Homo sapiens, UniProt Q99835)
Assay: Bodipy-Cyclopamine Binding Assay (confirmation assay), Hek293-SMO cells
[1] = Smo IC50 (nM), confirmation assay, competition with 100 nM bodipy-cyclopamine, Hek293-SMO cells

Chain of Smo (Q99835 28-787): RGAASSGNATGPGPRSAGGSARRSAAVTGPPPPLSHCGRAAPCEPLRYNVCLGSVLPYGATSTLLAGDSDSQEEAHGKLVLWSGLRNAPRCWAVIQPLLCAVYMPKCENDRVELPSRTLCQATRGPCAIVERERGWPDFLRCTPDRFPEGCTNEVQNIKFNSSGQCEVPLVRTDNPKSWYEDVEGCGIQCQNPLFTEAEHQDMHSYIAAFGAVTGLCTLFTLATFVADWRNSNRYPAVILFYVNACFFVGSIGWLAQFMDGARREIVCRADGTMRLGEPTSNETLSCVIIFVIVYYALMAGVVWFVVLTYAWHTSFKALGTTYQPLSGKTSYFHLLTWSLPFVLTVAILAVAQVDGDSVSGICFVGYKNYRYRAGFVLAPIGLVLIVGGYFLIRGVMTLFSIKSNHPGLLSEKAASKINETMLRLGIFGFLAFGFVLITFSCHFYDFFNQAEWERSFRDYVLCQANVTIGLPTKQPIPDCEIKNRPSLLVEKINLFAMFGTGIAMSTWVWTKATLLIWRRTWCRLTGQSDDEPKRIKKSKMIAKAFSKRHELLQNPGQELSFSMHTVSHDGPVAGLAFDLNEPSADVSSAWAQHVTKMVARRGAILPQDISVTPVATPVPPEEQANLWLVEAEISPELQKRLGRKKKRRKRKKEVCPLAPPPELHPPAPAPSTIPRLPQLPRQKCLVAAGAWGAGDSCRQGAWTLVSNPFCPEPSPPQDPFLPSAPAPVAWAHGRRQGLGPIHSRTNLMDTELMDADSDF
Experimental: The confirmation assay is based on Bodipy-Cyclopamine Binding Assay:
Bodipy-Cyclopamine binding assay is a fluorescence based assay used to analysis the binding of Smo agonists. […] Bodipy-Cyclopamine was purchased from Toronto Research Chemicals and dissolved in methanol.
Hek293-SMO cells were plated in 96-well-plate (3340, Corning), the final cell concentration is 15,000 cells/well in 100 ul 1% serum-containing DMEM. The plates were incubated in 37 degree for additional 48 hours.
Hek293-SMO plate were washed with PBS and fixed with 4% paraformaldehyde (PFA)/PBS for 20 min at room temperature. After removing the PFA buffer, the cells were incubated with DAPI/PBS (5 ug/mL) for 10 min and followed by twice wash with PBS. After wash, cells were incubated for 2 h at room temperature in binding buffer (HBSS W/O Ca^2+ and Mg^2+) containing 100 nM bodipy-cyclopamine and compounds over a range of concentrations from 0-10 μM for competitive binding. After incubation, the cells were washed twice with the PBS. The fluorescence images were automatically captured and analyzed by a high content fluorescence imaging system (Arrayscan VTI, Thermo). GDC-0449 was used as reference compound to normalize the data. IC50 values were calculated with GraphPad Prism software using the sigmoidal dose-response function. The Ki was calculated following the Cheng-Prusoff equation, as Ki=IC50/[1+[bodipy-cyclopamine]/Kd)].

Cc1cnc(-c2cc(N3CCc4nc(OC(C)C)ncc4C3)ncc2Cl)c(C)c1 [Compound A-69, 6-(5′-chloro-3,5-dimethyl-2,4′-bipyridin-2′-yl)-2-isopropoxy-5,6,7,8-tetrahydro-pyrido-[4,3-d]pyrim-idine]
IC50: 97.8 nM

Cc1cnc(-c2cc(N3CCn4cc(C(=O)Nc5ccccc5F)nc4C3)ncc2Cl)c(C)c1 [Compound A-20, 7-(5′-chloro-3,5-dimethyl-2,4′-bipyridin-2′-yl)-N-(2-fluorophenyl)-5,6,7,8-tetrahydro-imidazo-[1,2-a]pyrazine-2-carboxamide]
IC50: 507 nM

Cc1cnc(-c2cc(N3CCc4nc(NS(C)(=O)=O)sc4C3)ncc2Cl)c(C)c1 [Compound A-45, N-(5-(5′-chloro-3,5-dimethyl-2,4′-bipyridin-2′-yl)-4,5,6,7-tetrahydro-thiazolo-[5,4-c]pyridin-2-yl)methane-sulfon-amide]
IC50: > 1000 nM

Cc1cnc(-c2cc(N3CCc4nc(OCC5CC5)ncc4C3)ncc2Cl)c(C)c1 [Compound A-73, 6-(5′-chloro-3,5-dimethyl-2,4′-bipyridin-2′-yl)-2-(cyclopropyl-methoxy)-5,6,7,8-tetrahydro-pyrido-[4,3-d]pyrim-idine]
IC50: 84 nM

CCC(=O)Nc1nc2c(s1)CN(c1cc(-c3ncc(C)cc3C)c(Cl)cn1)CC2 [Compound A-25, N-(5-(5′-chloro-3,5-dimethyl-2,4′-bipyridin-2′-yl)-4,5,6,7-tetrahydro-thiazolo-[5,4-c]pyridin-2-yl)propion-amide]
IC50: 101 nM

CC(=O)Nc1nc2c(s1)CN(c1cc(-c3ncc(C)cc3C)c(Cl)cn1)CC2 [Compound A-23, N-(5-(5′-chloro-3,5-dimethyl-[2,4′-bipyridin]-2′-yl)-4,5,6,7-tetrahydrothiazolo[5,4-c]pyridin-2-yl)acetamide]
IC50: 363 nM

Cc1cnc(-c2cc(N3CCc4nc(NC5CC5)ncc4C3)ncc2Cl)c(C)c1 [Compound A-52, 6-(5′-chloro-3,5-dimethyl-2,4′-bipyridin-2′-yl)-N-cyclopropyl-5,6,7,8-tetrahydropyrido[4,3-d]pyrimidin-2-amine]
IC50: 5.4 nM

Clc1cnc(N2CCc3nc(NC4CC4)ncc3C2)cc1-c1cccnc1 [Compound A-118, 6-(5′-chloro-3,4′-bipyridin-2′-yl)-N-cyclopropyl-5,6,7,8-tetrahydro-pyrido-[4,3-d]pyrimidin-2-amine]
IC50: > 1000 nM

Cc1ccc(-c2cc(N3CCc4nc(NC5CC5)ncc4C3)ncc2Cl)nc1 [Compound A-110, 6-(5′-chloro-5-methyl-2,4′-bipyridin-2′-yl)-N-cyclopropyl-5,6,7,8-tetrahydropyrido-[4,3-d]pyrimidin-2-amine]
IC50: > 1000 nM

CCNC(=O)Nc1ncc2c(n1)CCN(c1cc(-c3ncc(C)cc3C)c(Cl)cn1)C2 [Compound A-91, 1-(6-(5′-chloro-3,5-dimethyl-2,4′-bipyridin-2′-yl)-5,6,7,8-tetrahydropyrido-[4,3-d]pyrimidin-2-yl)-3-ethylurea]
IC50: > 1000 nM

Clc1cnc(N2CCc3nc(NC4CC4)ncc3C2)cc1-c1cnccn1 [Compound A-116, 6-(5-chloro-4-(pyrazin-2-yl)pyridin-2-yl)-N-cyclopropyl-5,6,7,8-tetrahydropyrido[4,3-d]pyrimidin-2-amine]
IC50: 235 nM

Cc1cnc(-c2cc(N3CCn4cc(C(=O)Nc5ccccc5)nc4C3)ncc2Cl)c(C)c1 [Compound A-19, 7-(5′-chloro-3,5-dimethyl-2,4′-bipyridin-2′-yl)-N-phenyl-5,6,7,8-tetrahydro-imidazo-[1,2-a]pyrazine-2-carboxamide]
IC50 [1]: 311 nM

Cc1cnc(-c2cc(N3CC(C)c4nc(N5CCC(O)CC5)ncc4C3=O)ncc2Cl)c(C)c1 (stereo not drawn) [Compound A-78, 6-(5′-chloro-3,5-dimethyl-2,4′-bipyridin-2′-yl)-2-(4-hydroxy-piperidin-1-yl)-8-methyl-7,8-dihydro-pyrido[4,3-d]pyrimidin-5(6H)-one]
IC50: 125 nM

Cc1cnc(-c2cc(N3CCc4nc(NC(=O)C(F)(F)F)sc4C3)ncc2Cl)c(C)c1 [Compound A-38, N-(5-(5′-chloro-3,5-dimethyl-2,4′-bipyridin-2′-yl)-4,5,6,7-tetrahydro-thiazolo-[5,4-c]pyridin-2-yl)-2,2,2-trifluoro-acetamide]
IC50: > 1000 nM

Cc1cnc(-c2cc(N3CCc4nc(NC(=O)C(C)(C)C)ncc4C3)ncc2Cl)c(C)c1 [Compound A-93, N-(6-(5′-chloro-3,5-dimethyl-2,4′-bipyridin-2′-yl)-5,6,7,8-tetrahydropyrido-[4,3-d]pyrimidin-2-yl)pivalamide]
IC50: 104 nM

Cc1cnc(-c2cc(N3CCc4nc(N5CCOCC5)ncc4C3)ncc2Cl)c(C)c1 [Compound A-56, 4-(6-(5′-chloro-3,5-dimethyl-2,4′-bipyridin-2′-yl)-5,6,7,8-tetrahydro-pyrido-[4,3-d]pyrimidin-2-yl)morpholine]
IC50: 48.7 nM

COCC(=O)Nc1nc2c(s1)CN(c1cc(-c3ncc(C)cc3C)c(Cl)cn1)CC2 [Compound A-27, N-(5-(5′-chloro-3,5-dimethyl-2,4′-bipyridin-2′-yl)-4,5,6,7-tetrahydro-thiazolo-[5,4-c]pyridin-2-yl)-2-methoxy-acetamide]
IC50: 423 nM

CNc1ncc2c(n1)CCN(c1cc(-c3ncc(C)cc3C)c(Cl)cn1)C2 [Compound A-50, 6-(5′-chloro-3,5-dimethyl-2,4′-bipyridin-2′-yl)-N-methyl-5,6,7,8-tetrahydro-pyrido-[4,3-d]pyrimidin-2-amine]
IC50: 232 nM

Cc1cnc(-c2cc(N3CCn4cc(C(=O)N5CCCC5)nc4C3)ncc2Cl)c(C)c1 [Compound A-3, (7-(5′-chloro-3,5-dimethyl-2,4′-bipyridin-2′-yl)-5,6,7,8-tetrahydroimidazo[1,2-a]pyrazin-2-yl)(pyrrolidin-1-yl)methanone]
IC50: 244 nM

Cc1cnc(-c2cc(N3CCn4cc(C(=O)OCC5CC5)nc4C3)ncc2Cl)c(C)c1 [Compound A16, cyclopro-pylmeth-yl 7-(5′-chloro-3,5-dimethyl-2,4′-bipyridin-2′-yl)-5,6,7,8-tetrahydro-imidazo-[1,2-a]pyrazine-2-carboxylate]
IC50 [1]: 442 nM

Cc1cnc(-c2cc(N3CCc4nc(N5CCC(O)CC5)ncc4C3=O)ncc2Cl)c(C)c1 [Compound A-97, 6-(5′-chloro-3,5-dimethyl-2,4′-bipyridin-2′-yl)-2-(4-hydroxypiperidin-1-yl)-7,8-dihydro-pyrido[4,3-d]pyrimidin-5(6H)-one]
IC50: 84.1 nM

Cc1cnc(-c2cc(N3Cc4cnc(N5CCCC5)nc4C(C)(C)C3)ncc2Cl)c(C)c1 [Compound A-81, 6-(5′-chloro-3,5-dimethyl-2,4′-bipyridin-2′-yl)-8,8-dimethyl-2-(pyrrolidin-1-yl)-5,6,7,8-tetrahydro-pyrido-[4,3-d]pyrimidine]
IC50: 167 nM

Cc1cnc(-c2cc(N3CCc4nc(OC5CCC5)sc4C3)ncc2Cl)c(C)c1 [Compound A-47, 5-(5′-chloro-3,5-dimethyl-2,4′-bipyridin-2′-yl)-2-cyclobutoxy-4,5,6,7-tetrahydro-thiazolo-[5,4-c]pyridine]
IC50: 88.3 nM

CCNc1nc2c(s1)CN(c1cc(-c3ncc(C)cc3C)c(Cl)cn1)CC2 [Compound A-35, 5-(5′-chloro-3,5-dimethyl-2,4′-bipyridin-2′-yl)-N-ethyl-4,5,6,7-tetrahydro-thiazolo-[5,4-c]pyridin-2-amine]
IC50: 260 nM
